According to patent publication US20080145858A1, “DETECTION AND IDENTIFICATION OF TOXICANTS BY MEASUREMENT OF GENE […]” (priority 2003, published 2008):

System: Xenopus laevis embryos
Experiment: Embryonic morphology after PMA treatment
Type: in vivo
Conditions: added 21 hours after fertilization, 18° C. for 30 hours; untreated showed typical neurula
Method: Embryos were sorted for successful cleavage to 2 cells (1.5 hours after fertilization), split into groups for subsequent treatment (triplicate treatments per each experimental group) and visually monitored for normal embryonic morphology. Rates of abnormal morphology were recorded for each group. Embryos at stage 8 were obtained after incubation of the fertilized embryos at 23° C. for 5 hours. PMA (100 ng/ml) or DMSO (0.01%, solvent used to dissolve PMA) was added to the embryos 2 hours after fertilization. […] Embryos at stage 15 were obtained after incubation of the fertilized embryos at 18° C. for 30 hours (the condition produced stage 15 embryos identical to embryos obtained at 23° C. for 10 hours). PMA or DMSO was added to the embryos 21 hours after fertilization.

**Q.** How did the “embryo morphology / developmental stage reached” value turn out when `CCCCCCCCCCCCCC(=O)O[C@@H]1[C@@H](C)[C@@]2(O)[C@@H](C=C(CO)C[C@@]3(O)C(=O)C(C)=C[C@@H]23)[C@@H]2C(C)(C)[C@]12OC(C)=O` [4 alpha-PMA] was run?
**A.** The value was “typical neurula morphology”.
